What all share (assay type): cell-based
The subject of test [1] is Streptococcus mutans UA159. The test is described as follows: Colony-forming units in the biofilm on tooth filling material test members (Example 9). The note with it: triclosan and chlorohexidine at a hundred times the concentration of carolacton. The protocol:
(§1) Stock solutions and corresponding diluted solutions of chlorohexidine, triclosan and carolacton were produced in methanol. […] of those solutions to be tested were introduced by pipette into microtitration plates; 9 parallel wells were used per substance and concentration. The methanol was evaporated (under a hood) and then 200 μl of the dilute bacterial suspension were added. The final concentrations of the active substances in the 200 μl of bacterial suspension were 0.25 μg/ml and 2.5 μg/ml. The plates were incubated anaerobically at 37° C. without agitation for 20 hours. Subsequently, the excess was removed by pipette, the biofilm was washed with a physiological cooking salt solution (0.85% of NaCl) and the biofilm was scraped off with a pipette. The biofilms from three parallel wells were suspended in 500 μl of PBS. From that biofilm suspension, a serial dilution in PBS was prepared. After each dilution step, vortexing was carried out for 1 minute. From each dilution, 50 μl was distributed three times on agar plates (TH medium). The plates were incubated for three days in the CO2 cupboard at 37° C., then the colony-forming units (CFU) were counted and the bacteria density in relation to […] of biofilm suspension was calculated.
(§2) In addition, three tooth filling materials similar to example 2 were prepared, where carolacton was replaced with triclosan in a first comparison admixture, carolacton was replaced with chlorohexidine in a second comparison admixture and carolacton was omitted in a third comparison admixture (control).
(§3) From each of the tooth filling materials produced, by hardening the tooth filling material 10 dental test members were produced with a diameter of 7 mm and a height of 1 mm and adhesively bonded with a small quantity of the tooth filling material in a total of 40 wells of a 96-well microtitration plate of polystyrene (Greiner Bio-One, μ Clear Plate Black, Frickenhausen, Germany).
In a THB nutrition medium, an over-night culture of Streptococcus mutans UA159 was produced under anaerobic conditions. […]

The subject of test [2] is Streptococcus mutans UA159. Briefly: Biofilm inhibition on hardened tooth filling material test members, LIVE/DEAD BacLight fluorescence (Example 9). The note with it: for biofilm inhibition (in words): active substance in hardened tooth filling material, carolacton 25 μg/ml, triclosan and chlorohexidine 2500 μg/ml. On the procedure: The admixture from example 2 was used as the tooth filling material according to the invention.
as §2, §3
In a THB nutrition medium, an over-night culture of Streptococcus mutans UA159 was produced under anaerobic conditions. The over-night culture obtained was diluted to an optimum density (at 620 nm; OD620) of from 0.01 to 0.03 with THB (with addition of 0.5% (G/V) of saccharose). Subsequently, 200 μl of the dilute over-night culture was introduced by pipette into the wells of the 96-well microtitration plate provided with the dental test members. The microtitration plate was subsequently incubated for 20 hours at 37° C. under anaerobic conditions in an incubator.
The determination of the biofilm inhibition was carried out with a LIVE/DEAD BacLight kit L13152 (Invitrogen, Molecular Probes, Inc. Eugene, Oreg., USA), taking note of the manufacturer's instructions. The kit comprises two dye solutions, propidium iodide and SYT09 which each discolour nucleic acids. The excesses of the biofilms in the individual wells of the 96-well microtitration plate were removed. In order to remove plankton-like or loosely bonded bacteria, the biofilm was carefully washed with 200 μl of a 0.85% NaCl solution, mixed with 200 μl of a 1:1 admixture of propidium iodide and SYT09 and subsequently left to stand for 15 minutes and at ambient temperature with light being excluded. The measurement of the fluorescence was carried out on a Wallac Victor3™ 1420Multilabel Counter (Perkin-Elmer Life Sciences) provided with detectors and filters for measuring the fluorescence at 630 nm (red) and 535 nm (green). The biofilm inhibition is given in percent as a quotient between the quotient of green and red fluorescence of the sample with the active substance (carolacton, chlorohexidine or triclosan) and the quotient of green and red fluorescence of the sample without any active substance (control).

Test [3] relates to Streptococcus mutans UA159. Briefly: Colony-forming units of Streptococcus mutans biofilm after treatment with solutions of active substances (Example 8). The note with it: for reduction in the colony-forming units: active substance in solution, final concentrations 0.25 μg/ml and 2.5 μg/ml, 20 hours anaerobic at 37° C.; for antimicrobial action in relation to Streptococcus mutans: solutions of the active substances at specific low concentrations (Example 8). The protocol:
In a THB nutrition medium, an over-night culture of Streptococcus mutans UA159 was cultivated anaerobically. That over-night culture was diluted to an optimum density (at 620 nm; OD620) of from 0.01 to 0.03 with THB (with addition of 0.5% (GN) of saccharose) so that a dilute bacterial suspension was obtained.
as §1

By inhibition is commonly meant how much of the control response was suppressed. With `COC(CC(=O)O)C(C)C(=O)C(C)/C=C(\C)C1OC(=O)C(O)C(O)/C=C/C(C)CCCC1C` (stereo not drawn) [carolacton], the “effect on number of CFU in the biofilm (in words)” value (shortened to “effect on number of CFU”) in test [1] is “powerful inhibiting effect”. Also, at 25 µg/mL the inhibition in test [2] (Streptococcus mutans, UA159, active substance 25 μg/ml in hardened tooth filling material of example 2, 20 hours, green/red fluorescence quotient vs control) was 51%. Further, the “biofilm inhibition (in words)” value in test [2] is “very good biofilm inhibition”. Also, in test [3], the “reduction in the colony-forming units” value was “merely weakly reduces the number of colony-forming units” and the “antimicrobial action in relation to Streptococcus mutans” value (“antimicrobial action in relation” for short) was “only has a weak antimicrobial action”.

Regarding `N=C(NCCCCCCNC(=N)NC(=N)Nc1ccc(Cl)cc1)NC(=N)Nc1ccc(Cl)cc1` [chlorohexidine], the “effect on number of CFU” value in test [1] is “neither triclosan nor chlorohexidine, although used at a hundred times the concentration of carolacton, results in a powerful reduction of the number of CFU”. In test [2] (active substance 2500 μg/ml in hardened tooth filling material similar to example 2, 20 hours, green/red fluorescence quotient vs control), the “Biofilm inhibition [%]” value was 1%. Besides, in test [2], the “biofilm inhibition (in words)” value is “scarcely influence the biofilm formation”. In test [3], the “reduction in the colony-forming units” value is on record as “very powerful reduction in the colony-forming units” and the “antimicrobial action in relation” value was “very powerful antimicrobial activity”.

Consider `Oc1cc(Cl)ccc1Oc1ccc(Cl)cc1Cl` [triclosan], for which the “effect on number of CFU” value in test [1] is given as “neither triclosan nor chlorohexidine, although used at a hundred times the concentration of carolacton, results in a powerful reduction of the number of CFU”. Further, the inhibition at 2500 µg/mL in test [2] (Streptococcus mutans, UA159, 20 h, read-out: Biofilm inhibition [%]) came out at 1%. Besides, in test [2], the “biofilm inhibition (in words)” value is “scarcely influence the biofilm formation”. Besides, in test [3], the “reduction in the colony-forming units” value is “very powerful reduction in the colony-forming units” and the “antimicrobial action in relation” value is on record as “very powerful antimicrobial activity”.

These data come from patent publication US9320682B2, “Tooth filling materials and dental varnish for inhibiting the formation of a biofilm of Streptococcus mutans and the production thereof” (VOCO Gmbh, priority 2012, dated 2016).
